According to PubChem BioAssay (NCI):
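Compound exposure: 48 hours, 5 concentrations, 96-well plates. The concentration for 50% growth inhibition is given as GI50. TGI denotes the concentration required for complete inhibition of growth.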

Key:
Experiment in all cases: DTP human tumour cell line panel, 48 h
SNB-75 CNS = tested on: SNB-75 CNS
ACHN renal = tested on: ACHN renal
OVCAR-5 ovarian = tested on: OVCAR-5 ovarian
OVCAR-3 ovarian = tested on: OVCAR-3 ovarian
IGROV1 ovarian = tested on: IGROV1 ovarian
LOX IMVI melanoma = tested on: LOX IMVI melanoma
SK-OV-3 ovarian = tested on: SK-OV-3 ovarian
DU-145 prostate = tested on: DU-145 prostate
M14 melanoma = tested on: M14 melanoma
TK-10 renal = tested on: TK-10 renal
SF-268 CNS = tested on: SF-268 CNS
OVCAR-4 ovarian = tested on: OVCAR-4 ovarian
OVCAR-8 ovarian = tested on: OVCAR-8 ovarian
MDA-MB-231 breast = tested on: MDA-MB-231 breast
NCI-H23 lung = tested on: NCI-H23 lung
PC-3 prostate = tested on: PC-3 prostate
CCRF-CEM leukemia = tested on: CCRF-CEM leukemia
T-47D breast = tested on: T-47D breast
EKVX NSCLC = tested on: EKVX NSCLC
K-562 leukemia = tested on: K-562 leukemia
HCT-116 colon = tested on: HCT-116 colon
MDA-MB-468 breast = tested on: MDA-MB-468 breast
NCI-H226 lung = tested on: NCI-H226 lung
UACC-62 melanoma = tested on: UACC-62 melanoma
HOP-92 NSCLC = tested on: HOP-92 NSCLC
HOP-62 NSCLC = tested on: HOP-62 NSCLC
SF-295 CNS = tested on: SF-295 CNS
BT-549 breast = tested on: BT-549 breast
SNB-19 CNS = tested on: SNB-19 CNS
NCI-H460 lung = tested on: NCI-H460 lung
A498 renal = tested on: A498 renal
SR leukemia = tested on: SR leukemia
SK-MEL-5 melanoma = tested on: SK-MEL-5 melanoma
UO-31 renal = tested on: UO-31 renal
MCF7 breast = tested on: MCF7 breast
U251 CNS = tested on: U251 CNS
NCI-H522 lung = tested on: NCI-H522 lung
A549 NSCLC = tested on: A549 NSCLC
MALME-3M melanoma = tested on: MALME-3M melanoma
HCT-15 colon = tested on: HCT-15 colon
RPMI-8226 leukemia = tested on: RPMI-8226 leukemia
SN12C renal = tested on: SN12C renal
786-0 renal = tested on: 786-0 renal
UACC-257 melanoma = tested on: UACC-257 melanoma
CAKI-1 renal = tested on: CAKI-1 renal
MDA-MB-435 = tested on: MDA-MB-435
HT29 colon = tested on: HT29 colon
SF-539 CNS = tested on: SF-539 CNS
COLO 205 colon = tested on: COLO 205 colon
HS 578T breast = tested on: HS 578T breast
RXF 393 renal = tested on: RXF 393 renal
MOLT-4 leukemia = tested on: MOLT-4 leukemia
KM12 colon = tested on: KM12 colon
SW-620 colon = tested on: SW-620 colon
SK-MEL-28 melanoma = tested on: SK-MEL-28 melanoma
HL-60(TB) leukemia = tested on: HL-60(TB) leukemia
HCC-2998 colon = tested on: HCC-2998 colon
SK-MEL-2 melanoma = tested on: SK-MEL-2 melanoma
NCI/ADR-RES ovarian = tested on: NCI/ADR-RES ovarian

## CCCCSc1nc(NCCc2c[nH]c3ccccc23)c(C#N)c(-c2ccccc2)n1
SNB-75 CNS
  GI50: 14.1 µM
  TGI: 47 µM
ACHN renal
  GI50: 12.7 µM
  TGI: 28.5 µM
OVCAR-5 ovarian
  GI50: 12.6 µM
  TGI: 26 µM
OVCAR-3 ovarian
  GI50: 14.7 µM
  TGI: 29.1 µM
IGROV1 ovarian
  GI50: 16 µM
  TGI: 32.3 µM
LOX IMVI melanoma
  GI50: 4.48 µM
  TGI: 15.5 µM
SK-OV-3 ovarian
  GI50: 22.4 µM
  TGI: 61.3 µM
DU-145 prostate
  GI50: 14.1 µM
  TGI: 32.1 µM
M14 melanoma
  GI50: 12.3 µM
  TGI: 26.9 µM
TK-10 renal
  GI50: 26.1 µM
  TGI: 54.7 µM
SF-268 CNS
  GI50: 14.6 µM
  TGI: 43.7 µM
OVCAR-4 ovarian
  GI50: 11.8 µM
  TGI: 34.8 µM
OVCAR-8 ovarian
  GI50: 23.7 µM
  TGI: > 100 µM
MDA-MB-231 breast
  GI50: 11.1 µM
  TGI: 25.4 µM
NCI-H23 lung
  GI50: 12.8 µM
  TGI: 27.9 µM
PC-3 prostate
  GI50: 4.42 µM
  TGI: 37.9 µM
CCRF-CEM leukemia
  GI50: 5.38 µM
  TGI: > 100 µM
T-47D breast
  GI50: 3.78 µM
  TGI: 19.4 µM
EKVX NSCLC
  GI50: 10 µM
  TGI: 32.4 µM
K-562 leukemia
  GI50: 4.91 µM
  TGI: > 100 µM
HCT-116 colon
  GI50: 3.82 µM
  TGI: 16.5 µM
MDA-MB-468 breast
  GI50: 5.3 µM
  TGI: 18.8 µM
NCI-H226 lung
  GI50: 12.4 µM
  TGI: 27.3 µM
UACC-62 melanoma
  GI50: 13.7 µM
  TGI: 26.6 µM
HOP-92 NSCLC
  GI50: 5.54 µM
  TGI: 25.4 µM
HOP-62 NSCLC
  GI50: 12.8 µM
  TGI: 29.7 µM
SF-295 CNS
  GI50: 13.8 µM
  TGI: 29.8 µM
BT-549 breast
  GI50: 12.3 µM
  TGI: 25.7 µM
SNB-19 CNS
  GI50: 17.2 µM
  TGI: 34.6 µM
NCI-H460 lung
  GI50: 4.2 µM
  TGI: 18.4 µM
A498 renal
  GI50: 16.2 µM
  TGI: 31.6 µM
SR leukemia
  GI50: 4.88 µM
  TGI: > 100 µM
SK-MEL-5 melanoma
  GI50: 9.88 µM
  TGI: 21.5 µM
UO-31 renal
  GI50: 14.6 µM
  TGI: 34.3 µM
MCF7 breast
  GI50: 5.26 µM
  TGI: 19.7 µM
U251 CNS
  GI50: 11.4 µM
  TGI: 25.3 µM
NCI-H522 lung
  GI50: 15.5 µM
  TGI: 32.5 µM
A549 NSCLC
  GI50: 22 µM
  TGI: 82.3 µM
MALME-3M melanoma
  GI50: 17.7 µM
  TGI: 32.6 µM
HCT-15 colon
  GI50: 4.44 µM
  TGI: 16.9 µM
RPMI-8226 leukemia
  GI50: 12.1 µM
  TGI: > 100 µM
SN12C renal
  GI50: 12.7 µM
  TGI: 25.5 µM
786-0 renal
  GI50: 10.5 µM
  TGI: 27 µM
UACC-257 melanoma
  GI50: 20.4 µM
  TGI: 47 µM
CAKI-1 renal
  GI50: 5.56 µM
  TGI: 20.7 µM
MDA-MB-435
  GI50: 13.7 µM
  TGI: 27.4 µM
HT29 colon
  GI50: 4.34 µM
  TGI: 16.4 µM
SF-539 CNS
  GI50: 12.3 µM
  TGI: 27.2 µM
COLO 205 colon
  GI50: 11.5 µM
  TGI: 29.5 µM
HS 578T breast
  GI50: 12.5 µM
  TGI: 61.5 µM
RXF 393 renal
  GI50: 11.9 µM
  TGI: 25.8 µM
MOLT-4 leukemia
  GI50: 5.73 µM
  TGI: 78.8 µM
KM12 colon
  GI50: 4.59 µM
  TGI: 18 µM
SW-620 colon
  GI50: 6.48 µM
  TGI: 23.3 µM
SK-MEL-28 melanoma
  GI50: 14.5 µM
  TGI: 29.1 µM
HL-60(TB) leukemia
  GI50: 16 µM
  TGI: 82.5 µM
HCC-2998 colon
  GI50: 7.92 µM
  TGI: 21.8 µM

## CN(C)CCn1c2ccccc2c2nc3ccc([N+](=O)[O-])cc3nc21
SK-MEL-2 melanoma
  GI50: 3.27 µM
  TGI: 7.64 µM
ACHN renal
  GI50: 0.322 µM
  TGI: 1.1 µM
OVCAR-5 ovarian
  GI50: 2.31 µM
  TGI: 6.51 µM
OVCAR-3 ovarian
  GI50: 2.01 µM
  TGI: 7.34 µM
IGROV1 ovarian
  GI50: 1.07 µM
  TGI: 9.46 µM
LOX IMVI melanoma
  GI50: 0.541 µM
  TGI: 1.95 µM
SK-OV-3 ovarian
  GI50: 2.49 µM
  TGI: 7.5 µM
DU-145 prostate
  GI50: 1.71 µM
  TGI: 9.91 µM
M14 melanoma
  GI50: 1.71 µM
  TGI: > 100 µM
TK-10 renal
  GI50: 2.35 µM
  TGI: 6.37 µM
SF-268 CNS
  GI50: 1.75 µM
  TGI: 13.2 µM
OVCAR-4 ovarian
  GI50: 2.76 µM
  TGI: > 100 µM
OVCAR-8 ovarian
  GI50: 0.907 µM
  TGI: 5.51 µM
MDA-MB-231 breast
  GI50: 1.87 µM
  TGI: 5.7 µM
NCI-H23 lung
  GI50: 1.2 µM
  TGI: 3.64 µM
PC-3 prostate
  GI50: 1.14 µM
  TGI: > 100 µM
CCRF-CEM leukemia
  GI50: 0.667 µM
  TGI: 4.37 µM
EKVX NSCLC
  GI50: 1.6 µM
  TGI: 5 µM
NCI/ADR-RES ovarian
  GI50: 1.28 µM
  TGI: 11.9 µM
K-562 leukemia
  GI50: 0.931 µM
  TGI: 11.3 µM
HCT-116 colon
  GI50: 0.752 µM
  TGI: 5.94 µM
MDA-MB-468 breast
  GI50: 0.514 µM
  TGI: 2.27 µM
NCI-H226 lung
  GI50: 1.27 µM
  TGI: 3.26 µM
UACC-62 melanoma
  GI50: 0.928 µM
  TGI: 2.9 µM
HOP-92 NSCLC
  GI50: 0.197 µM
  TGI: 2.29 µM
HOP-62 NSCLC
  GI50: 1.08 µM
  TGI: 4.76 µM
SF-295 CNS
  GI50: 0.477 µM
  TGI: 3.09 µM
SNB-19 CNS
  GI50: 2.32 µM
  TGI: 10.4 µM
NCI-H460 lung
  GI50: 0.395 µM
  TGI: 2.19 µM
A498 renal
  GI50: 1.74 µM
  TGI: 4.56 µM
SR leukemia
  GI50: 0.322 µM
  TGI: 1.69 µM
SK-MEL-5 melanoma
  GI50: 0.666 µM
  TGI: 2.05 µM
UO-31 renal
  GI50: 0.248 µM
  TGI: 1.99 µM
U251 CNS
  GI50: 0.772 µM
  TGI: 3.96 µM
NCI-H522 lung
  GI50: 0.988 µM
  TGI: 4.22 µM
A549 NSCLC
  GI50: 0.438 µM
  TGI: 1.83 µM
MALME-3M melanoma
  GI50: 0.709 µM
  TGI: 3.41 µM
HCT-15 colon
  GI50: 0.725 µM
  TGI: 4.06 µM
RPMI-8226 leukemia
  GI50: 1.23 µM
  TGI: 4.3 µM
SN12C renal
  GI50: 0.813 µM
  TGI: 4.62 µM
786-0 renal
  GI50: 1.31 µM
  TGI: 6.55 µM
UACC-257 melanoma
  GI50: 1.86 µM
  TGI: 5.95 µM
CAKI-1 renal
  GI50: 0.368 µM
  TGI: 2.71 µM
MDA-MB-435
  GI50: 2.3 µM
  TGI: > 100 µM
SF-539 CNS
  GI50: 0.645 µM
  TGI: 3.85 µM
HS 578T breast
  GI50: 2.16 µM
  TGI: > 100 µM
RXF 393 renal
  GI50: 1.83 µM
  TGI: 5.83 µM
MOLT-4 leukemia
  GI50: 0.41 µM
  TGI: 2.9 µM
KM12 colon
  GI50: 1.53 µM
  TGI: 9.15 µM
SW-620 colon
  GI50: 0.691 µM
  TGI: > 100 µM
SK-MEL-28 melanoma
  GI50: 2.54 µM
  TGI: > 100 µM
HL-60(TB) leukemia
  GI50: 0.256 µM
  TGI: 0.698 µM
HCC-2998 colon
  GI50: 1.47 µM
  TGI: 3.72 µM
